Experimental data from PMC3629922 (ACS medicinal chemistry letters, 2013).

Key:
D2 receptor = conditions: cited from earlier work
5-HT2B receptor [1] = molecular target: T1, 5-HT2B receptor (Homo sapiens, UniProt P41595); experiment: 5-HT2B functional assay using HTRF quantitation of IP1 accumulation; type: cell-based
5-HT2B receptor [2] = molecular target: T1, 5-HT2B receptor; experiment: 5-HT2B functional antagonism against serotonin; type: cell-based
D4 = molecular target: T2, D4 (Homo sapiens, UniProt P21917); experiment: D4 functional assay; type: cell-based; conditions: performed at the PDSP
T2 sequence (P21917 1-419): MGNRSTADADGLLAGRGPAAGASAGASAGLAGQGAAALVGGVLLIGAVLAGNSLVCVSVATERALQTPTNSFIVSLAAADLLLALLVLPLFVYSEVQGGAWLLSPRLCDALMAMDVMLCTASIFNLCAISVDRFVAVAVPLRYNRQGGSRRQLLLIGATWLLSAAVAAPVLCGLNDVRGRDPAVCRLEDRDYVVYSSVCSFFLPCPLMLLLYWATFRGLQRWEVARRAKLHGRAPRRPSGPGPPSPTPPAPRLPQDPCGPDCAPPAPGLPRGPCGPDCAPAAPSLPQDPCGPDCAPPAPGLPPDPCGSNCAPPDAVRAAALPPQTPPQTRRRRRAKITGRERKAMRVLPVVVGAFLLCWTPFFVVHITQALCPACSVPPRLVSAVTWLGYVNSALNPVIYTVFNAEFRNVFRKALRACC

D2 = D2 (Homo sapiens, UniProt P14416); experiment: D2 functional assay; type: cell-based; conditions: performed at the PDSP
D2, sequence (P14416 whole entry): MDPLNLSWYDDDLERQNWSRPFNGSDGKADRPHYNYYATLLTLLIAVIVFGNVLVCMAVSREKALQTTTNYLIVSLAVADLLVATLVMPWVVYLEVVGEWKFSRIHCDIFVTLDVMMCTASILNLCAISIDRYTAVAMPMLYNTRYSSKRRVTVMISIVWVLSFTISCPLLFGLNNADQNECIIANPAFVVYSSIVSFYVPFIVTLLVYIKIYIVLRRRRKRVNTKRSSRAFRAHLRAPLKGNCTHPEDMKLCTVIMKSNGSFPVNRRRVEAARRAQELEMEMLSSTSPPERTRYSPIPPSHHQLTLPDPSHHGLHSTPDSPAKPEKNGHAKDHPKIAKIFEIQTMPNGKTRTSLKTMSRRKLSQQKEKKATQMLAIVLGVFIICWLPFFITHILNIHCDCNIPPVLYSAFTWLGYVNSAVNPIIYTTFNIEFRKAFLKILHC

5-HT2B receptor [3] = molecular target: T1, 5-HT2B receptor; experiment: 5-HT2B functional assay, intracellular calcium mobilization; type: cell-based; conditions: FLIPR Tetra, n = 5
5-HT2B receptor [4] = molecular target: T1, 5-HT2B receptor; conditions: binding and functional assays; cited from earlier work
[5] = tested on: 5-HT2B receptors in porcine pulmonary arteries; conditions: cited from earlier work

T1 sequence (P41595 whole entry): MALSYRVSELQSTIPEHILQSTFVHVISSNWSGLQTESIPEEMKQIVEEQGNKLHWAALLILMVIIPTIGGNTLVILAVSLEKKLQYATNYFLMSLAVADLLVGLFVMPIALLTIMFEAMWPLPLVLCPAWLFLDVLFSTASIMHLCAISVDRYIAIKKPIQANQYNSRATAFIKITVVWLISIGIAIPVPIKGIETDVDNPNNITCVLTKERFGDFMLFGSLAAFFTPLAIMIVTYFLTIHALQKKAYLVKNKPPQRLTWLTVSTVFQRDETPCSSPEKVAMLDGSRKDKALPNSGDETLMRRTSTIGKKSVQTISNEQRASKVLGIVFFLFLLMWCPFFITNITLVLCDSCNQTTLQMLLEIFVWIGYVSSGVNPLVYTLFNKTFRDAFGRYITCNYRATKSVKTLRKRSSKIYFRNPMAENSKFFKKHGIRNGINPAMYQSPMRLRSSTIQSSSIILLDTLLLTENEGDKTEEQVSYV

SMILES | Functionality at the 5-HT2B receptor (IP1 assay) (5-HT2B receptor [1]) | Antagonism against serotonin at the 5-HT2B receptor (5-HT2B receptor [2]) | Functionality at the human 5-HT2B receptor (calcium mobilization assay) (5-HT2B receptor [3]) | other results
CSC[C@@H]1C[C@@H]2c3cccc4[nH]cc(c34)C[C@H]2N(C)C1 [6-methylpergolide] |  |  |  | Functionality at the D2 receptor (D2 receptor): full agonists
C=CCN1C[C@H](C(=O)N(CCCN2CCOCC2)C(=O)NCC)C[C@@H]2c3cccc4[nH]cc(c34)C[C@H]21 [Compound 1] | full agonists |  |  | 
CCNC(=O)N(CCCN(C)C)C(=O)[C@@H]1C[C@@H]2c3cccc4c3c(cn4C)C[C@H]2N(C)C1 [Compound 9, 1,6-Dimethylcabergoline] | no agonism | potent antagonists | no agonism | D4 functionality (D4): full D4 agonist; D2 functionality (D2): potent but partial D2 agonist
CN(C)CCCNC(=O)[C@@H]1C[C@@H]2c3cccc4c3c(cn4C)C[C@H]2N(C)C1 [Compound 14] | minimal to no agonism | potent antagonists | minimal to no agonism | 
COC(OC)[C@@H]1C[C@@H]2c3cccc4c3c(cn4C)C[C@H]2N(C)C1 [Compound 15] | no agonism | potent antagonists | no agonism | 
C=CCN1C[C@H](C(=O)N(CCCN(C)C)C(=O)NCC)C[C@@H]2c3cccc4[nH]cc(c34)C[C@H]21 [cabergoline, reference compound] | full agonists |  |  | 
CC[C@@H](CO)NC(=O)[C@@H]1C=C2c3cccc4[nH]cc(c34)C[C@H]2N(C)C1 [methylergonovine] |  |  |  | Activity at the 5-HT2B receptor (5-HT2B receptor [4]): partial agonist
CC[C@@H](CO)NC(=O)[C@@H]1C=C2c3cccc4c3c(cn4C)C[C@H]2N(C)C1 [methysergide] |  |  |  | Activity at the 5-HT2B receptor (5-HT2B receptor [4]): significantly weaker activity
CCCN1C[C@H](CSC)C[C@@H]2c3cccc4[nH]cc(c34)C[C@H]21 [pergolide] |  |  |  | Functionality at the D2 receptor (D2 receptor): full agonists; Functionality at 5-HT2B receptors in porcine pulmonary arteries [5]: functional agonist
